From the NIST ThermoML archive (doi:10.1021/je200609g)
Numbers after ± are expanded uncertainties.

Conditions: 101.33 kPa, Liquid; for speed of sound: Sing-around technique in a fixed-path interferometer; for mass density: Vibrating tube method

speed of sound (278.15 K) | mass density (278.15 K) | speed of sound (288.15 K) | mass density (288.15 K) | speed of sound (298.15 K) | mass density (298.15 K) | speed of sound (308.15 K) | mass density (308.15 K) | speed of sound (318.15 K) | mass density (318.15 K) | speed of sound (328.15 K) | mass density (328.15 K) | Compound
1375 ± 0.87 m/s | 903.71 ± 0.09 kg/m3 | 1325.8 ± 0.85 m/s | 892.92 ± 0.09 kg/m3 | 1277.4 ± 0.83 m/s | 882.02 ± 0.1 kg/m3 | 1229.6 ± 0.81 m/s | 871 ± 0.1 kg/m3 | 1182.4 ± 0.8 m/s | 859.84 ± 0.11 kg/m3 | – | – | C1CCOC1 [tetrahydrofuran]
1208.5 ± 0.74 m/s | 797.34 ± 0.12 kg/m3 | 1173.1 ± 0.73 m/s | 789.22 ± 0.13 kg/m3 | 1138.2 ± 0.72 m/s | 780.89 ± 0.13 kg/m3 | 1103.2 ± 0.71 m/s | 772.28 ± 0.13 kg/m3 | 1068.1 ± 0.7 m/s | 763.32 ± 0.14 kg/m3 | 1032.6 ± 0.69 m/s | 753.95 ± 0.14 kg/m3 | CC(C)O [propan-2-ol]
1482.2 ± 2.1 m/s | 1400.51 ± 1.8 kg/m3 | 1458.3 ± 2.1 m/s | 1392.02 ± 1.8 kg/m3 | 1435.6 ± 2.1 m/s | 1383.58 ± 1.7 kg/m3 | 1413.2 ± 2.1 m/s | 1375.19 ± 1.7 kg/m3 | 1391.3 ± 2.1 m/s | 1366.86 ± 1.7 kg/m3 | 1369.7 ± 2.1 m/s | 1358.59 ± 1.7 kg/m3 | CCn1cc[n+](C)c1.O=S(=O)([O-])C(F)(F)F [1-ethyl-3-methylimidazolium trifluoromethanesulfonate]
